Data: patent publication US12185721B2, “Glycoside compound of fatty acids, composition comprising it, process for its obtention and methods to apply it on plants or fruits or both at the same time” (Consejo Nacional de Investigaciones Científicas y Técnicas …, priority 2020, dated 2025)
No end group written: not given here.

What was measured:
Salmonella Newport = settings: described values; cited from earlier work
Rhodococcus fascians = settings: values described for other antimicrobial compounds; cited from earlier work
Bacillus subtilis = settings: described values; cited from earlier work
Listeria monocytogenes = settings: described values; cited from earlier work
Micrococcus sp. = settings: described values; cited from earlier work
[1] = test system: Colletotrichum gloeosporioides L9; settings: described values; cited from earlier work
[2] = test system: Colletotrichum fragariae F7; settings: described values; cited from earlier work
[3] = test system: Colletotrichum acutatum M11; settings: described values; cited from earlier work
P. digitatum = assay: Protection against postharvest diseases in fruits of lemon tree, preventive effect; format: in vivo, Penicillum digitatum; settings: Imazalil 500 ppm
Botritys cinerea = settings: described values; cited from earlier work
Penicillum digitatum = settings: described values; cited from earlier work
Proteus sp. = settings: described values; cited from earlier work
Citrobacter sp. = settings: described values; cited from earlier work
Pseudomona aeruginosa = settings: described values; cited from earlier work
Escherichia coli MC 4100 = settings: described values; cited from earlier work
[4] = test system: Enterococcus faecium CRL35; settings: described values; cited from earlier work
[5] = test system: Staphylococcus epidermidis; settings: described values; cited from earlier work
Staphylococcus aureus = settings: described values; cited from earlier work
Colletotrichum acutatum = assay: Test for resistance to disease in strawberry plants (anthracnose); format: in vivo; settings: salicylic acid 5 mM; acibenzolar-s-methyl 1 mM
Protocol: Healthy plants of the cv“Pájaro” (“Bird”) 3 months old of Fragaria×ananassa from in vitro tissue cultures, with the FLs compounds at a preferred concentration of 0.03 μg/ml were sprayed and 5 days later they were exposed to the pathogen fungus Colletotrichum acutatum, causative agent of the anthracnose disease (European Journal of Plant Pathology, (2007) 117, 109-122). The infected plants were incubated in a growth chamber under optimal conditions for the proliferation of the fungi and the development of the disease (28° C., 80% of relative humidity and a photoperiod of 16 hours). Seven days after incubation, the gravity symptoms of petiole disease were assessed according to the scale proposed by Delp and Milholland (Plant Disease, (1980), 64(12), 1071-1073), that assigns values of gravity comprised between 1 (healthy plant) and 5 (very grave or dead plant). As positive controls of the induction of a defense against pathogens, the treatment with FLs was replaced by salicylic acid 5 mM or 1 mM of […] or BTH, a salicylic acid analogous that induces a […] defense in plants. It is worth noting that the FLs, BTH and salicylic acid concentrations used were subinhibitory for C. acutatum growth. As a negative control of defense induction, the plants were sprayed with sterile distilled water.

B. cinerea (gray mold) = assay: Test for resistance to diseases in strawberry fruits, controlled conditions of growth; format: in vivo, Botrytis cinerea; settings: FLs 10 μg/ml, HeT 0.8 mg/ml, sodium hypochlorite 4%
Protocol: (§1) Fruits inoculated under controlled conditions of growth: Healthy and ripe strawberries collected in the field were disinfected by means of washing in ethanol at 70%, sodium hypochlorite at 10% and sterile water. The disinfected fruits were immersed in an FLs solution (10 μg/ml) and incubated at 25° C., 90% of humidity and 16 hours of photoperiod. After 2 days of incubation, the surface of the treated fruits was inoculated with a fungus spore suspension of 20 μl ([…]) of B. cinerea or P. digitatum, and were incubated in the same growth conditions above described. Seven days after the pathogen inoculation, the incidence (% of infected fruits) and the severity (degree of affected fruit surface) of the disease were assessed. The fruits sprayed with a solution of sodium hypochlorite at 4% were used as a protection positive control and the sterile fruits treated with water, as negative controls. Besides, a treatment with the plant defense inducer HeT (0.8 mg/ml) was included. The FL and HeT concentrations were subinhibitory for fungal growth.

P. digitatum (blue mold) = assay: as above; format: in vivo, Penicillum digitatum; settings: FLs 10 μg/ml, HeT 0.8 mg/ml, sodium hypochlorite 4%
Protocol: as §1

[6] = test system: C. michiganensis cytoplasmic membrane; assay: Test for depolarization of membranes, diSC3(5) fluorescence; format: cell-based; settings: FLs 60 μg/ml; valinomycin 1 μM; C. michiganensis cells
Protocol: To study the possible mechanism underlying the FLs antimicrobial activity, the effect of the application of FLs upon C. michiganensis cytoplasmic membrane was assessed (FIG. 4), by using the cyanine stain method with 3,3′-Dipropylthiadicarbocianine iodide (diSC3 (5)) (Biochemistry (1999), 38(22), 7235-7242.).
The depolarization of the membrane in the bacterium C. michiganensis as controlled through changes in the intensity of the fluorescence emission of the diSC3 (5) membrane-sensitive stain (Biochemistry, (1999), 38(22), 7235-7242.). C. michiganensis was grown in LB liquid medium and incubated in a stirrer (120 rpm) at 26° C., up to the growth in a median logarithmic phase (OD600=0.5). The harvested cells were centrifuged and washed once (glucose 5 mM and HEPES 20 mM pH 7.3) and were suspended again up to a final OD600 final=0.05 in the same buffer. […]
After the addition of 0.4 μM de diSC3 (5), the sample cells that contained bacterial cells were incubated at 26° C. until a stable reduction of the fluorescence (about 5 minutes) was reached, what indicated the incorporation of the stain into the bacterial membrane. Afterwards, the FLs, valinomycin or water were added and the stain fluorescence increase at 622 nm (excitation wavelength) and 670 nm (emission wavelength) with a RF-5301 PC spectrofluorometer (Shimadzu, Kyoto, Japan) was recorded. […]

Xanthomonas fragariae = settings: described values; cited from earlier work

For `NCC[C@H](O)C(=O)N[C@@H]1C[C@H](N)[C@@H](O[C@H]2O[C@H](CN)[C@@H](O)[C@H](O)[C@H]2O)[C@H](O)[C@H]1O[C@H]1O[C@H](CO)[C@@H](O)[C@H](N)[C@H]1O` [Amikasin], the “CE50 (μg/ml) for commercial antimicrobial” value (from here on “CE50 (μg/ml)”) (Salmonella Newport) is listed as “Amikasin 2 μg/ml”.
For `CC[C@H]1OC(=O)[C@H](C)[C@@H](O[C@H]2C[C@@](C)(OC)[C@@H](O)[C@H](C)O2)[C@H](C)[C@@H](O[C@@H]2O[C@H](C)C[C@H](N(C)C)[C@H]2O)[C@](C)(O)C[C@@H](C)CN(C)[C@H](C)[C@@H](O)[C@]1(C)O` [Azythromicin], the “CE50 (μg/ml)” value (Rhodococcus fascians) is given as “Azythromicin 0.5 μg/ml”, the “CE50 (μg/ml)” value (Bacillus subtilis) is given as “Azythromicin 2 μg/ml” and the “CE50 (μg/ml)” value (Listeria monocytogenes) is given as “Azythromicin 0.5 μg/ml”. The “CE50 (μg/ml)” value (Micrococcus sp.) was “Azythromicin 0.12 μg/ml”.
For `CCCCNC(=O)n1c(NC(=O)OC)nc2ccccc21` [Benomyl], the “CE50 (μg/ml)” value [1] is given as “Benomyl 0.29 μg/ml” and the “CE50 (μg/ml)” value [2] is given as “Benomyl 0.29 μg/ml”.
In the case of `O=C1C2CC=CCC2C(=O)N1SC(Cl)(Cl)Cl` (stereo not shown) [Captan], the “CE50 (μg/ml)” value [3] is given as “Captan 1 μg/ml”.
For `CC[C@H]1OC(=O)[C@H](C)[C@@H](O[C@H]2C[C@@](C)(OC)[C@@H](O)[C@H](C)O2)[C@H](C)[C@@H](O[C@@H]2O[C@H](C)C[C@H](N(C)C)[C@H]2O)[C@](C)(OC)C[C@@H](C)C(=O)[C@H](C)[C@@H](O)[C@]1(C)O` [Clarythromicin], the “CE50 (μg/ml)” value (Rhodococcus fascians) is listed as “Clarythromicin 0.06 μg/ml”, the “CE50 (μg/ml)” value (Bacillus subtilis) is listed as “Clarythromicin 0.12 μg/ml” and the “CE50 (μg/ml)” value (Listeria monocytogenes) is listed as “Clarythromicin 0.12 μg/ml”. For the same compound, the “CE50 (μg/ml)” value (Micrococcus sp.) was “Clarythromicin 0.06 μg/ml”.
In the case of `CC[C@H]1OC(=O)[C@H](C)[C@@H](O[C@H]2C[C@@](C)(OC)[C@@H](O)[C@H](C)O2)[C@H](C)[C@@H](O[C@@H]2O[C@H](C)C[C@H](N(C)C)[C@H]2O)[C@](C)(O)C[C@@H](C)C(=O)[C@H](C)[C@@H](O)[C@]1(C)O` [Erythromycin], the “CE50 (μg/ml)” value (Rhodococcus fascians) is listed as “Erythromycin 0.25 μg/ml”, the “CE50 (μg/ml)” value (Bacillus subtilis) is listed as “Erythromycin 0.25 μg/ml” and the “CE50 (μg/ml)” value (Listeria monocytogenes) is listed as “Erythromycin 0.25 μg/ml”. For the same compound, the “CE50 (μg/ml)” value (Micrococcus sp.) was “Erythromycin 0.12 μg/ml”.
In the case of `C=CCOC(Cn1ccnc1)c1ccc(Cl)cc1Cl` (stereo not shown) [Imazalil], the “protection of lemons compared with FLs 0.1 mg/ml” value (P. digitatum) is listed as “comparable”, the “CE50 (μg/ml)” value (Botritys cinerea) is listed as “Imazalil 8 μg/ml” and the “CE50 (μg/ml)” value (Penicillum digitatum) is listed as “Imazalil 6 μg/ml”.
For `C[C@@H](O)[C@H]1C(=O)N2C(C(=O)O)=C(S[C@@H]3CN[C@H](C(=O)N(C)C)C3)[C@H](C)[C@H]12` [Meropenem], the “CE50 (μg/ml)” value (Proteus sp.) is listed as “Meropenem 0.1 μg/ml”, the “CE50 (μg/ml)” value (Citrobacter sp.) is listed as “Meropenem 0.02 μg/ml” and the “CE50 (μg/ml)” value (Pseudomona aeruginosa) is listed as “Meropenem 0.2 μg/ml”. The “CE50 (μg/ml)” value (Escherichia coli MC 4100) was “Meropenem 0.01 μg/ml”.
For `CN[C@H](CC(C)C)C(=O)N[C@H]1C(=O)N[C@@H](CC(N)=O)C(=O)N[C@H]2C(=O)N[C@H]3C(=O)N[C@H](C(=O)N[C@H](C(=O)O)c4cc(O)cc(O)c4-c4cc3ccc4O)[C@H](O)c3ccc(c(Cl)c3)Oc3cc2cc(c3O[C@@H]2O[C@H](CO)[C@@H](O)[C@H](O)[C@H]2O[C@H]2C[C@](C)(N)[C@H](O)[C@H](C)O2)Oc2ccc(cc2Cl)[C@H]1O` [Vancomycin], the “CE50 (μg/ml)” value [4] is listed as “Vancomycin 0.78 μg/ml”, the “CE50 (μg/ml)” value [5] is listed as “Vancomycin 1.56 μg/ml” and the “CE50 (μg/ml)” value (Staphylococcus aureus) is listed as “Vancomycin 0.78 μg/ml”.
In the case of `CSC(=O)c1cccc2nnsc12` [acibenzolar-s-methyl], the “protection against anthracnose compared with FLs” value (Colletotrichum acutatum) was “comparable”.
With `O=C(O)c1ccccc1O` [salicylic acid] the “protection against anthracnose compared with FLs” value (Colletotrichum acutatum) was “comparable”.
In the case of `OCl` [sodium hypochlorite, reference compound], the “reduction of gray mold incidence” value (B. cinerea (gray mold)) was 70%, the “reduction of gray mold severity” value (B. cinerea (gray mold)) was 45% and the “reduction of blue mold incidence” value (P. digitatum (blue mold)) was 50%. For the same compound, the “reduction of blue mold severity” value (P. digitatum (blue mold)) was 40%.
In the case of `CC(C)[C@@H]1NC(=O)[C@H](C)OC(=O)[C@@H](C(C)C)NC(=O)[C@@H](C(C)C)OC(=O)[C@H](C(C)C)NC(=O)[C@H](C)OC(=O)[C@@H](C(C)C)NC(=O)[C@@H](C(C)C)OC(=O)[C@H](C(C)C)NC(=O)[C@H](C)OC(=O)[C@@H](C(C)C)NC(=O)[C@@H](C(C)C)OC1=O` [valinomycin, reference compound], the “increase of diSC3 (5) fluorescence (membrane depolarization)” value [6] was “induced a fluorescence increase similar to the one seen with the FL compound”.
For “Cecropin B (KWKVFKKIEKMGRNIRNGIVKAGPAIAVLGEAKAL; ends and bridges not checked; UniProt P01508 27-61, looked up) [commercial antimicrobial]”, the “CE50 (μg/ml)” value (Xanthomonas fragariae) is listed as “Cecropin B 0.04 μg/ml”.
